Experimental data published in US7417109B2, “Polymers for delivering nitric oxide in vivo” (Duke University, priority 1996, dated 2008).

Key:
[1] = cited from earlier work
[2] = Half-life and NO delivery in physiological solution (NO by method of Saville); format: physicochemical
Description: In addition, the half-lives for these compositions in physiological solution were measured. The half-life is time required for the composition to lose one half of its bound NO. The amount of NO in the composition is determined by the method of Saville, as described in Example 13.
The concentration of R—S—NO groups in a sample is based on the method reported in Saville, Analyst 83:620 (1958). By this method, R—S—NO groups are converted into an azo dye. The concentration of this dye is determined by measuring the absorbance at 540 nm (ε˜50,000 M^−1 cm^−1). The procedure is as follows:
A given volume (50 μl−1 m) of the sample to be assayed is added to an equivalent volume of solution A and solution B. The two samples are set aside for 5 minutes to allow formation of the diazonium salt, after which an equivalent volume of solution C is added to each mixture. Color formation, indicative of the azo dye product, is usually complete by 5 minutes. The sample absorbance is then read spectrophotometrically at 540 nm. The RSNO is quantified as the difference in absorbance between solution B and A. (i.e. B−A). In the event that the background nitrite concentration is high (i.e. increased background in A), the accuracy of the measurement can be increased by the addition of an equivalent volume of 0.5% ammonium sulfamate in acid (45 mM) 5 minutes prior to the addition of sulfanilamide. […]

| time able to deliver NO [2] | Structure (SMILES) | lifetime in physiological solution [1] |
| --- | --- | --- |
|  | CC(C)(SN=O)C(N)C(=O)O (racemic) [S-nitroso-D,L-penicillamine] | no more than about an hour |
| no more than one | CC(C)(SN=O)[C@H](N)C(=O)O [S-nitroso-penicillamine] |  |
|  | N[C@@H](CSN=O)C(=O)O [S-nitrosocysteine] | no more than about an hour |
